In patent publication US9695171B2, “3,4-disubstituted-1 H-pyrrolo[2,3-b]pyridines and 4,5-disubstituted-7H-pyrrolo[2,3-c]pyridazines as LRRK2 inhibitors” (Pfizer Inc., priority 2013, dated 2017):

Target: T1, GST-tagged truncated LRRK2 (Homo sapiens, UniProt Q5S007)
T1 construct: GST-tagged truncated LRRK2 from Invitrogen (Cat # PV4874); GST; purchased Invitrogen PV4874
Assay: LRRK2 kinase assay (Lantha Screen)
Type: biochemical
Conditions: 1 mM ATP (head); a = geometric mean of >=4 determinations, b = single determination; read-out: LRRK2 LANTHA EC50 at 1 mM ATP; Geometric mean of 2-3 determinations unless otherwise indicated
Experimental: LRRK2 kinase activity was measured using Lantha Screen technology from Invitrogen. GST-tagged truncated LRRK2 from Invitrogen (Cat # PV4874) was incubated with a fluorescein-labeled peptide substrate based upon ezrin/radixin/moesin (ERM), also known as LRRKtide (Invitrogen cat # PR8976A), in the presence of a dose response of compound. Upon completion, the assay was stopped and detected with a terbium labeled anti-phospho-ERM antibody (Invitrogen, cat # PR8975A). […] The compound dose response was prepared by diluting compound to a top concentration of 3.16 mM in 100% DMSO and serial diluted by half-log in DMSO 11 times. Aliquots (3.5 μL) of the 100% DMSO dose response were mixed with 46.5 μL water then 1 μL of this mixture was added to the 3 μL substrate mix in the 384-well plate. The kinase reaction was started with 3 μL of a working solution of LRRK2 enzyme at a concentration of 4 μg/mL. […] The reaction was allowed to progress at room temperature for two hours and then stopped with the addition of 7 μL of detection buffer (20 mM Tris pH 7.6, 0.01% NP-40, 0.02% NaN3, 6 mM EDTA with 2 nM terbium labeled anti-phospho-ERM). After an incubation of 1 hour at room temperature, the plate was read on an Envision with an excitation wavelength of 340 nm and a reading emission at both 520 nm and 495 nm. The ratio of the 520 nm and 495 nm emission was used to analyze the data.

T1 sequence (Q5S007 970-2527 limits assumed): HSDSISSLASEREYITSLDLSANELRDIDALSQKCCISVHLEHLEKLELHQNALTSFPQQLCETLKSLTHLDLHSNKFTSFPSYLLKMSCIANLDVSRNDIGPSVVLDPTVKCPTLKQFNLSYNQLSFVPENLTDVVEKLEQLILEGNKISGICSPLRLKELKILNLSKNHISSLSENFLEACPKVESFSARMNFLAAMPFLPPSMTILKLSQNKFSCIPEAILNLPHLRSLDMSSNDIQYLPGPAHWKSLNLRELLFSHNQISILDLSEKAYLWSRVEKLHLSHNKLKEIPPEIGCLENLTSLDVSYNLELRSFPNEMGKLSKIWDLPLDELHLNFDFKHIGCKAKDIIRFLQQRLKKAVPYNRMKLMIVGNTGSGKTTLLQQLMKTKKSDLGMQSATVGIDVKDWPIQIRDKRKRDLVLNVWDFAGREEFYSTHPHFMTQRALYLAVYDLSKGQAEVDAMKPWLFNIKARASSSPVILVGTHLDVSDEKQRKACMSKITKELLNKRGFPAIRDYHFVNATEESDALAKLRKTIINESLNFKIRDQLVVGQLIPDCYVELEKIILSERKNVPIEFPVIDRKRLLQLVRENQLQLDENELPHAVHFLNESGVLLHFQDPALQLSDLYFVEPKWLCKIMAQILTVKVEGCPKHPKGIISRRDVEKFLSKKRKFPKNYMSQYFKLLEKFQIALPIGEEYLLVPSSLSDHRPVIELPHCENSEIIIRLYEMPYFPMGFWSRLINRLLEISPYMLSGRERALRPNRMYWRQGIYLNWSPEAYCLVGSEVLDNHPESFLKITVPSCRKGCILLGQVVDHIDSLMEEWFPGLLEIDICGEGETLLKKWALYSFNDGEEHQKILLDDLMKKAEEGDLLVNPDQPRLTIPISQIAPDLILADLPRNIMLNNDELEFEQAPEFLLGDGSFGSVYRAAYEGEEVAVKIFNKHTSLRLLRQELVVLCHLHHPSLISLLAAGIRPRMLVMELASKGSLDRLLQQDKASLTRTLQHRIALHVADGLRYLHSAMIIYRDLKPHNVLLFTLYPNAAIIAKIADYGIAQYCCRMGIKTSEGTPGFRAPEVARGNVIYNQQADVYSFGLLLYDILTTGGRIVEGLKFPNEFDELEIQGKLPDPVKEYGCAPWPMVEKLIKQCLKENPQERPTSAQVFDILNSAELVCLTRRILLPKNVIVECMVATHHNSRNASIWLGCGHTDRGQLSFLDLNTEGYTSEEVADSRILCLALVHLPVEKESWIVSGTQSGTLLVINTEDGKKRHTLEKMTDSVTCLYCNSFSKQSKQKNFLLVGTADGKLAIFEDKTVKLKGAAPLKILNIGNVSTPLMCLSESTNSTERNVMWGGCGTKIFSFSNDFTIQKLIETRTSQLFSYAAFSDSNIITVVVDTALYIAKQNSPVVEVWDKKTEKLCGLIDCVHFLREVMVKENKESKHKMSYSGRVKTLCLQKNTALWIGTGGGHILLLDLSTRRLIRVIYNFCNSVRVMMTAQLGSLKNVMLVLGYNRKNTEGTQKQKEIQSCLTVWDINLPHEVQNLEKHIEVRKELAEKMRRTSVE

In order of falling EC50:
1. N#Cc1cc(-c2c[nH]c3nccc(N4CCOCC4)c23)ccc1F [Example 41, 2-fluoro-5-[4-(morpholin-4-yl)-1H-pyrrolo[2,3-b]pyridin-3-yl]benzonitrile]  0.226 µM
2. Cn1cc(-c2c[nH]c3nncc(N4CCOCC4)c23)cn1 [Example 110, 5-(1-methyl-1H-pyrazol-4-yl)-4-(morpholin-4-yl)-7H-pyrrolo[2,3-c]pyridazine]  0.201 µM
3. Fc1ccc(-c2c[nH]c3nccc(N4CCOCC4)c23)cc1 [Example 50, 3-(4-fluorophenyl)-4-(morpholin-4-yl)-1H-pyrrolo[2,3-b]pyridine]  0.191 µM
4. Cc1cncc(-c2c(C)[nH]c3nccc(N4CCOCC4)c23)c1 [Example 51, 2-methyl-3-(5-methylpyridin-3-yl)-4-(morpholin-4-yl)-1H-pyrrolo[2,3-b]pyridine]  0.191 µM
5. Cn1cc(-c2c[nH]c3nccc(-c4cccc(C#N)c4)c23)cn1 [Example 109, 3-[3-(1-methyl-1H-pyrazol-4-yl)-1H-pyrrolo[2,3-b]pyridin-4-yl]benzonitrile]  0.188 µM
6. Cc1nnc(-c2cccc(-c3c[nH]c4nccc(N5CCOCC5)c34)c2)o1 [Example 30, 3-[3-(5-methyl-1,3,4-oxadiazol-2-yl)phenyl]-4-(morpholin-4-yl)-1H-pyrrolo[2,3-b]pyridine]  0.179 µM
7. Cc1[nH]c2nccc(N3CCOCC3)c2c1-c1cc(F)cc(C#N)c1 [Example 56, 3-fluoro-5-[2-methyl-4-(morpholin-4-yl)-1H-pyrrolo[2,3-b]pyridin-3-yl]benzonitrile]  0.174 µM
8. Cn1cc(-c2c[nH]c3nccc(-c4ccc5scnc5c4)c23)cn1 [Example 107, 5-[3-(1-methyl-1H-pyrazol-4-yl)-1H-pyrrolo[2,3-b]pyridin-4-yl]-1,3-benzothiazole]  0.169 µM
9. Cn1cc(-c2c[nH]c3ncc(C#N)c(N4CCOCC4)c23)cn1 [Example 44, 3-(1-methyl-1H-pyrazol-4-yl)-4-(morpholin-4-yl)-1H-pyrrolo[2,3-b]pyridine-5-carbonitrile]  0.143 µM
10. COc1ccc(-c2ccnc3[nH]cc(-c4cnn(C)c4)c23)c(F)c1 [Example 105, 4-(2-fluoro-4-methoxyphenyl)-3-(1-methyl-1H-pyrazol-4-yl)-1H-pyrrolo[2,3-b]pyridine]  0.143 µM
11. Cn1cc(-c2c[nH]c3nccc(N4CCCC(CO)C4)c23)cn1 (stereo not drawn) [Example 60, {1-[3-(1-methyl-1H-pyrazol-4-yl)-1H-pyrrolo[2,3-b]pyridin-4-yl]piperidin-3-yl}methanol]  0.14 µM
12. COc1ccc(-c2ccnc3[nH]cc(-c4cnn(C)c4)c23)cc1F [Example 104, 4-(3-fluoro-4-methoxyphenyl)-3-(1-methyl-1H-pyrazol-4-yl)-1H-pyrrolo[2,3-b]pyridine]  0.138 µM
13. Fc1ccc(F)c(-c2c[nH]c3nccc(N4CCOCC4)c23)c1 [Example 22, 3-(2,5-difluorophenyl)-4-(morpholin-4-yl)-1H-pyrrolo[2,3-b]pyridine]  0.13 µM
14. Clc1ncccc1-c1c[nH]c2nccc(N3CCOCC3)c12 [Example 35, 3-(2-chloropyridin-3-yl)-4-(morpholin-4-yl)-1H-pyrrolo[2,3-b]pyridine]  0.11 µM
15. COc1ccc(F)c(F)c1-c1c[nH]c2nccc(N3CCOCC3)c12 [Example 40, 3-(2,3-difluoro-6-methoxyphenyl)-4-(morpholin-4-yl)-1H-pyrrolo[2,3-b]pyridine]  0.105 µM
16. OCc1cccc(-c2c[nH]c3nccc(N4CCOCC4)c23)c1 [Example 28, {3-[4-(morpholin-4-yl)-1H-pyrrolo[2,3-b]pyridin-3-yl]phenyl}methanol]  0.0963 µM
17. Cc1cc(N2CCOCC2)c2c(-c3cccc(C#N)c3F)c[nH]c2n1 [Example 18, 2-fluoro-3-[6-methyl-4-(morpholin-4-yl)-1H-pyrrolo[2,3-b]pyridin-3-yl]benzonitrile]  0.0954 µM
18. Cc1[nH]c2nccc(N3CCOCC3)c2c1-c1ccccc1F [Example 54, 3-(2-fluorophenyl)-2-methyl-4-(morpholin-4-yl)-1H-pyrrolo[2,3-b]pyridine]  0.0916 µM
19. N#Cc1cccc(-c2c[nH]c3ncc(CO)c(N4CCOCC4)c23)c1 [Example 10, 3-[5-(Hydroxymethyl)-4-(morpholin-4-yl)-1H-pyrrolo[2,3-b]pyridin-3-yl]benzonitrile]  0.0798 µM
20. OCc1ccc(F)c(-c2c[nH]c3nccc(N4CCOCC4)c23)c1 [Example 29, {4-fluoro-3-[4-(morpholin-4-yl)-1H-pyrrolo[2,3-b]pyridin-3-yl]phenyl}methanol]  0.0725 µM
21. Fc1cc(F)c(F)c(-c2c[nH]c3nccc(N4CCOCC4)c23)c1 [Example 33, 4-(morpholin-4-yl)-3-(2,3,5-trifluorophenyl)-1H-pyrrolo[2,3-b]pyridine]  0.0697 µM
22. COCc1cnc2[nH]cc(-c3cccc(C#N)c3)c2c1N1CCOCC1 [Example 84, 3-[5-(methoxymethyl)-4-(morpholin-4-yl)-1H-pyrrolo[2,3-b]pyridin-3-yl]benzonitrile]  0.0634 µM
23. Cn1cc(-c2c[nH]c3nccc(-c4cccc(Cl)c4)c23)cn1 [Example 97, 4-(3-chlorophenyl)-3-(1-methyl-1H-pyrazol-4-yl)-1H-pyrrolo[2,3-b]pyridine]  0.0631 µM
24. Cn1cc(-c2c[nH]c3nccc(-c4cccc(F)c4F)c23)cn1 [Example 96, 4-(2,3-difluorophenyl)-3-(1-methyl-1H-pyrazol-4-yl)-1H-pyrrolo[2,3-b]pyridine]  0.0589 µM
25. N#Cc1cc(CO)cc(-c2c[nH]c3nccc(N4CCOCC4)c23)c1 [Example 49, 3-(hydroxymethyl)-5-[4-(morpholin-4-yl)-1H-pyrrolo[2,3-b]pyridin-3-yl]benzonitrile]  0.0508 µM
26. Fc1cc(F)cc(-c2c[nH]c3nccc(N4CCOCC4)c23)c1 [Example 34, 3-(3,5-difluorophenyl)-4-(morpholin-4-yl)-1H-pyrrolo[2,3-b]pyridine]  0.0433 µM
27. N#Cc1cccc(-c2c[nH]c3nccc(N4CCC(F)CC4)c23)c1 [Example 74, 3-[4-(4-fluoropiperidin-1-yl)-1H-pyrrolo[2,3-b]pyridin-3-yl]benzonitrile]  0.039 µM
28. C[C@@H]1CN(c2ccnc3[nH]cc(-c4cccc(C#N)c4)c23)CCO1 [Example 76, 3-{4-[(2R)-2-methylmorpholin-4-yl]-1H-pyrrolo[2,3-b]pyridin-3-yl}benzonitrile]  0.0306 µM
29. Cc1cc(F)cc(-c2c[nH]c3ncc(C#N)c(N4CCOCC4)c23)c1 [Example 46, 3-(3-fluoro-5-methylphenyl)-4-(morpholin-4-yl)-1H-pyrrolo[2,3-b]pyridine-5-carbonitrile]  0.0296 µM
30. N#Cc1cccc(-c2c[nH]c3ncc(C#N)c(N4CCOCC4)c23)c1 [Example 11, 3-(3-Cyanophenyl)-4-(morpholin-4-yl)-1H-pyrrolo[2,3-b]pyridine-5-carbonitrile]  0.0242 µM
31. N#Cc1cccc(-c2c[nH]c3nccc(N4CC[C@H](F)C4)c23)c1 [Example 78, 3-{4-[(3S)-3-fluoropyrrolidin-1-yl]-1H-pyrrolo[2,3-b]pyridin-3-yl}benzonitrile]  0.024 µM
32. Cc1cc(F)cc(-c2c[nH]c3nccc(N4CCOCC4)c23)c1 [Example 38, 3-(3-fluoro-5-methylphenyl)-4-(morpholin-4-yl)-1H-pyrrolo[2,3-b]pyridine]  0.0229 µM
33. Cc1[nH]c2nccc(N3CCOCC3)c2c1-c1cccc(C#N)c1 [Example 8, 3-[2-Methyl-4-(morpholin-4-yl)-1H-pyrrolo[2,3-b]pyridin-3-yl]benzonitrile]  0.0221 µM
34. COCC1CN(c2ccnc3[nH]cc(-c4cccc(C#N)c4)c23)CCO1 (stereo not drawn) [Example 67, 3-{4-[2-(methoxymethyl)morpholin-4-yl]-1H-pyrrolo[2,3-b]pyridin-3-yl}benzonitrile]  0.022 µM
35. O=c1cc(-c2c[nH]c3nccc(N4CCOCC4)c23)cc[nH]1 [Example 81, 4-[4-(morpholin-4-yl)-1H-pyrrolo[2,3-b]pyridin-3-yl]pyridin-2(1H)-one]  0.0111 µM
36. N#Cc1cccc(-c2c[nH]c3nccc(C4=CCOCC4)c23)c1 [Example 65, 3-[4-(3,6-dihydro-2H-pyran-4-yl)-1H-pyrrolo[2,3-b]pyridin-3-yl]benzonitrile]  0.00717 µM
37. Cc1[nH]c2nccc(N3CCOCC3)c2c1-c1cc(C#N)n(C)c1 [Example 87, 1-methyl-4-[2-methyl-4-(morpholin-4-yl)-1H-pyrrolo[2,3-b]pyridin-3-yl]-1H-pyrrole-2-carbonitrile]  0.00546 µM
38. N#Cc1cccc(-c2c[nH]c3nccc(N4CCOCC4)c23)c1F [Example 2, 2-Fluoro-3-[4-(morpholin-4-yl)-1H-pyrrolo[2,3-b]pyridin-3-yl]benzonitrile]  0.00517 µM
39. Cn1cc(-c2c(Cl)[nH]c3nccc(N4CCOCC4)c23)cc1C#N [Example 7, 4-[2-Chloro-4-(morpholin-4-yl)-1H-pyrrolo[2,3-b]pyridin-3-yl]-1-methyl-1H-pyrrole-2-carbonitrile]  0.0013 µM
